Measured values reported in patent US8992815B2, “Production of organic compound nanoparticles with high repetition rate ultrafast pulsed laser ablation in liquids” (IMRA America, Inc., priority 2010, dated 2015).
Read-outs that look alike come from different tables or passages of the source.

Assays:
[1] = background statement; cited from earlier work
[2] = Solubility of curcumin in water and methanol; assay type: physicochemical
From the text: In a first experiment curcumin powder, purchased from Sigma Aldrich, was used as the organic source material. The curcumin powder was formed into a pellet of target material by compression in a 0.5 inch in diameter mold using three tons of pressure. The curcumin pellet was then ablated according to the present invention using deionized water as the liquid. The flow rate of the liquid in the container was about 80 milliliters per second. The curcumin pellet was ablated using an ultrafast pulsed laser having a wavelength of 1045 nanometers, using a pulse duration of 500 femtoseconds, a pulse energy of 1 microJoules, a power of 1 W and a pulse repetition rate of 1 MHz. The laser focus spot size was about 30 micrometers in diameter and the fluence is calculated at about 0.14 Joules/cm^2. The frequency of the vibrating mirror was 50 Hz with a 4 millimeter trace for 0.4 meters per second. […] The hydrocolloidal contains some large particles as evidenced by the spread of the peak and the background absorbance of the curve. The y-axis is the absorption and the x-axis is the wavelength. […] In addition, 0.1 milliliters of the curcumin nanoparticle hydrocolloidal prepared according to the present invention was mixed with 1.0 milliliters of methanol. […]

For `COc1cc(C=CC(=O)CC(=O)C=Cc2ccc(O)c(OC)c2)ccc1O` [curcumin, 1,7-bis(4-hydroxy-3-methoxyphenyl)-1,6-heptadiene-3,5-dione], the solubility in water [1] is listed as “not water soluble”, the solubility in methanol ([2]; methanol, powder dissolved at 2.5×10^−5 M) is listed as “dissolvable in methanol” and the solubility in water ([2]; water) is listed as “does not dissolve in water”.
